Drawing on a melting point compilation (Tetko et al.; mined from patent text by program, amines drawn as free bases though some values may be those of a salt), this text covers melting point for 92 compounds.

Each structure is given as a SMILES string.

A word on the melting point: it is the temperature of the solid-liquid transition. Compound `CC(C)=C1CNc2ccc(O)cc21` came in with a melting point of 175 to 178 °C.

For `COc1cccc(-n2nc(C(=O)O)c3csc(N)c3c2=O)c1`, the melting point was in the range of 227 to 229 °C.

With `Cc1cc(C(C)(O)c2scnc2C)c(C)o1` (configuration not stated), the melting point fell in the range of 100 to 102 °C.

On to `COc1cc(C(=O)N2CCN(C(=O)c3cc(OC)c(OC)c(OC)c3)C(COC(=O)N3CCCCC3)C2)cc(OC)c1OC` (configuration not stated), for which the melting point was 147 °C.

The compound `Cn1c(-c2cccc(C(F)(F)F)c2)cc(=O)n(-c2ccc(Cl)cc2F)c1=O` came in with a melting point of 139 to 142 °C.

In the case of `CCCCOc1cc(CNCCCN2CCCCC2)cc(S(N)(=O)=O)c1Cc1ccccc1`, the melting point is 98 to 101 °C.

Take `COc1ccc(Nc2nc(Cl)nc3c(OC)cccc23)c(C)c1`: the melting point lay within 230 to 232 °C.

`CCCCCCCCCCCCCCOc1ccc(CC(=O)O)cc1` came in with a melting point of 86 to 87 °C.

For the compound `O=C(NCc1ccccc1)N1C(=O)[C@H](O)[C@@H]1c1ccccc1`, the melting point was 165 to 168 °C.

The compound `COC(=O)/C(=C/c1ccc(OCc2ccccc2)c([N+](=O)[O-])c1)N=[N+]=[N-]` registered a melting point of 95 to 96 °C.

`CC(=O)Nc1c(C)cc(F)cc1[N+](=O)[O-]` came in with a melting point of 167 to 172 °C.

The compound `CC1CCC(C(=O)N(C)C)=C2NC=C(C(N)=O)C(=O)N21` (configuration not stated) yielded a melting point of 220 °C.

In the case of `O=[N+]([O-])c1c(Br)nn(CC(O)CO)c1NCc1ccccc1` (configuration not stated), the melting point was determined as 90.1 °C.

For the compound `O=[N+]([O-])c1cnc2ccc(-c3ccccc3)cc2c1Nc1ccccc1Br`, the melting point was 198 to 204 °C.

The compound `CC1(C)CC(=O)c2c(S(C)(=O)=O)sc(C(=O)O)c2C1` had a melting point of 208 °C.

`NC(=O)c1cn(Cc2ccccc2F)nn1` registered a melting point of 220 to 222 °C.

Consider `Cc1nn(C)c2nc3ccccc3c(Cl)c12`, for which the melting point fell in the range of 127 to 129 °C.

With `Nc1ccccc1C(=O)OC1CCN(Cc2ccccc2)CC1`, the melting point was 87 to 88 °C.

Turning to `CCOC(=O)c1cnc2n(c1=O)CCCCC2`, the melting point is 82 to 84 °C.

The compound `CC(C)[C@H]1OC[C@H](Nc2nnc(Cc3ccc(O)nc3)c3ccccc23)CO1` registered a melting point of 108 to 109 °C.

Consider `O=C1NC(c2ccccc2)(c2ccccc2)C(=O)N1CO`, for which the melting point fell in the range of 185 to 189 °C.

Compound `CCCCCCCCCCCCCCCCC(N)C(O)CO` (configuration not stated) returned a melting point of 92 to 93 °C.

The compound `Cc1c(CO)oc2ccc(Cl)cc12` displayed a melting point of 112 to 113 °C.

For the compound `O=C(CCc1ccccc1)Nc1cccc(C(=O)NN=C2C(=O)Nc3ccc(I)cc32)c1`, the melting point is 293 °C.

`CN(C)C=Cc1nc2ccccc2c(=O)n1-c1ccccc1Cl` returned a melting point of 228 to 230 °C.

For `COc1nc(OC)nc(C2(c3nc(OC)nc(OC)n3)OC(=O)c3c(Cl)cccc32)n1`, the melting point was in the range of 126 to 127 °C.

`COC(=O)c1cc(C)c(NC(=O)c2cc(C(F)(F)F)nn2-c2ncccc2Cl)c(C(=O)NC(C)C)c1` showed a melting point of 199 to 200 °C.

Take `CC1=CC(OC(=O)c2cccn2C)C(O)C(C)(C)CC1=O` (configuration not stated): the melting point was in the range of 141 to 142 °C.

Consider `O=c1[nH]nc2c(Br)cccn12`, for which the melting point is 297 to 299 °C.

Regarding `CC1(C)CC(CCn2c(=O)[nH]c3ncc(-c4ccc(O)cc4)nc32)CCO1` (configuration not stated), the melting point lay in the range of 232 to 234 °C.

Turning to `Cc1nc(C)c(C(C)(O)c2cocc2Br)o1` (configuration not stated), the melting point was 124 to 125 °C.

`CC(C(=O)O)c1ccc2c(c1)C(=O)Cc1ccc(F)cc1S2` (configuration not stated): the melting point was found to be 148 °C.

In turn, `CC(C)NCC(O)COC1c2ccccc2C(=O)N1c1ccccc1` (configuration not stated) yielded a melting point of 92 °C.

In turn, `O=C1C(=Cc2ccc(Cl)cc2)N2CCC1CC2` showed a melting point of 108 to 110 °C.

For `O=c1[nH]c2ccc([N+](=O)[O-])cc2c(O)c1[N+](=O)[O-]`, the melting point is 197 to 198 °C.

In the case of `CC(ON1C(C)(C)CC(O)CC1(C)C)C(=O)NCCCN(C)C` (configuration not stated), the melting point lay within 85 to 88 °C.

`CC(=O)SCC(=O)c1cc(S(=O)(=O)N(C)C)ccc1Cl` yielded a melting point of 84 to 88 °C.

Regarding `CCCCCCC(C)(C)c1cc(OC)c(C2=C[C@@]3(C)CC[C@@H]2C3(C)C)c(OC)c1`, the melting point was 32 to 33 °C.

`CCCNc1nc(C)c(CCO)c(=O)n1C`: the melting point was 240 °C.

Compound `c1cn(CCCc2ccc(OCc3coc(-c4ccc(OCc5ccc6c(c5)OCO6)cc4)n3)cc2)cn1` gave a melting point of 124 to 125 °C.

Take `CCCCC(CC)COC(=O)C(C#N)=Cc1ccc(NC(=O)C(CC)CCCC)cc1` (configuration not stated): the melting point stood at 68 °C.

In the case of `CCNS(=O)(=O)Cc1ccc(N)cc1`, the melting point is 161 to 164 °C.

In the case of `Cc1ncc(CN2CCCNC2=C[N+](=O)[O-])s1`, the melting point lay in the range of 204 to 207 °C.

As for `C#CCOc1ccc2c(C(=O)OCC)cc(=O)oc2c1`, the melting point stood at 230 °C.

In turn, `Cc1ccc(C2CC3C=CC2C3)n1CCC1CC(O)CC(=O)O1` (configuration not stated) yielded a melting point of 125 to 126 °C.

As for `O=C(CC1c2ccccc2C(=O)N1c1ccc2ccc(Cl)nc2n1)N1CCC2(CC1)OCCO2` (configuration not stated), the melting point lay in the range of 238 to 239 °C.

`CCOC(=O)c1sc(-n2c(=O)n(Cc3ccc(F)cc3)c3ccccc32)nc1C` came in with a melting point of 192 to 193 °C.

For the compound `CCC(=S)Nc1c(SC(F)(F)F)c(C#N)nn1-c1c(Cl)cc(C(F)(F)F)cc1SC`, the melting point was in the range of 153 to 155 °C.

Consider `CCc1noc(C)c1-c1[nH]c2ccccc2c1C(=O)CCN(C)C`, for which the melting point fell in the range of 146 to 148 °C.

Consider `CCOC(=O)C(=O)Nc1c([N+](=O)[O-])sc2ccc([N+](=O)[O-])cc12`, for which the melting point fell in the range of 178 to 183 °C.

In turn, `Nc1cc(Cl)c(Cl)c(Br)c1N` registered a melting point of 128 to 129 °C.

`CCCC[C@@](C)(O)C(=O)O` showed a melting point of 67.8 to 67.9 °C.

`Nc1cc(C(F)(F)F)ccc1-c1cc(Oc2ccc3cccnc3c2)ncn1` had a melting point of 193 to 194 °C.

Compound `CC=CC=C1SC(=S)N(CC(=O)O)C1=O` yielded a melting point of 216 to 218 °C.

As to `CCN1C(c2ccccc2C(=O)c2ccc(Cl)cc2)=NCC1(C)C`, the melting point lay within 85 to 87 °C.

`COC(=O)OCCNC(=O)C(F)(F)Cc1c[nH]c([N+](=O)[O-])n1` yielded a melting point of 50.5 to 52.5 °C.

The compound `COc1ccc2c(c1)CCC(C(=O)O)O2` (configuration not stated) displayed a melting point of 131 to 135 °C.

In the case of `CC(C)N(C=Nc1ncc(I)c(Cl)n1)C(C)C`, the melting point was 97 to 100 °C.

Regarding `CCOc1nn(C)c(C(F)(F)F)c1CS(=O)(=O)C1=NOC(C)(C)C1`, the melting point lay in the range of 124 to 125 °C.

`Cc1ccccc1C(=O)Nc1ccc(C(=O)N2Cc3ccccc3Cc3ccccc32)c(C)c1` showed a melting point of 112 to 114 °C.

With `ClCc1c(Br)c(Br)c(CCl)c(Br)c1Br`, the melting point lay in the range of 232 to 233 °C.

As for `COCc1nnc(NC(=O)C2c3ccccc3Oc3ccccc32)o1`, the melting point was in the range of 113 to 114 °C.

`CCOC(=O)c1cn(C)c2nc3cc(N4CCNC(Cc5ccccc5)C4)c(F)cc3cc2c1=O` (racemic) yielded a melting point of 190 °C.

`CCCc1[nH]c2ccc(OCc3ccc4ccccc4n3)cc2c1CC` showed a melting point of 91 °C.

`CC(=O)NCCc1cn(S(=O)(=O)c2c(Cl)nc3sccn23)c2ccccc12` registered a melting point of 150 to 152 °C.

Regarding `COc1ccc(Nc2cc(C)nc(SCC#N)n2)cc1`, the melting point lay in the range of 128 to 131 °C.

Compound `CN1CCC(NC(=O)c2cc(Cl)cc3oc(-c4ccccc4)nc23)CC1` had a melting point of 170 to 172 °C.

Take `CC(=O)N[C@@H](CSC(C)=O)C(=O)NCCSC(C)=O`: the melting point lay in the range of 153 to 154 °C.

In turn, `CC1(O)c2ccccc2C(C)(O)c2ccccc21` (configuration not stated) had a melting point of 178 to 179 °C.

Compound `CS(=O)(=O)c1ccc(-c2sc(Nc3cc(Cl)cc(Cl)c3)nc2-c2ccc(F)cc2)cc1` yielded a melting point of 287 to 288 °C.

Regarding `COC(=O)c1ccc2c(c1)N(C)C(=O)c1cccnc1N2`, the melting point is 273 to 276 °C.

In turn, `CC(C)(C)CNc1cc(N2CCNCC2)nc(NCC(C)(C)C)n1` had a melting point of 138 to 140 °C.

For the compound `N#Cc1ccc(C(Cc2ccc(C(F)(F)F)cn2)Cn2cncn2)cc1` (configuration not stated), the melting point came to 78 °C.

In the case of `C[C@H](N)Cn1ncc2ccc(C(N)=O)cc21`, the melting point lay within 170 to 172 °C.

`Nc1ncc(-c2cccc(Nc3ccc(-c4ccco4)cc3[N+](=O)[O-])c2)cn1` yielded a melting point of 178 to 180 °C.

The compound `CC(C)(C)OC(=O)NCCCn1c(CCCOc2ccccc2)nc2c(N)nc3ccccc3c21` yielded a melting point of 151 to 153 °C.

The compound `CCSc1cc(C)nc(SCC)c1NC(=O)CN1CCN(CCSc2nc3c(C)c(Cl)cc(C(C)C)c3o2)CC1` yielded a melting point of 120 to 122 °C.

Compound `FC(F)(F)c1cc(I)c2c(c1)ncn2-c1ccccc1` had a melting point of 118 to 120 °C.

On to `O=C(O)CCNC(=O)C(=Cc1ccc(C(F)(F)F)cc1)CS`, for which the melting point amounted to 108 °C.

On to `O=C1Cc2cc([N+](=O)[O-])ccc2Sc2cc(Br)ccc21`, for which the melting point lay within 242 to 245 °C.

Take `COc1ccc(C(=O)Nc2cccc(C(=O)O)c2)c2cc(C(=O)c3ccccc3)oc12`: the melting point was 262 to 263 °C.

For `CCOC(=O)/C=C(/c1ccc(OC)cc1)c1cccc(C#N)c1`, the melting point lay within 105 to 106 °C.

As to `C#CCN1C(=O)N(c2ccc(C#N)c(C(F)(F)F)c2)C(=O)C1(CO)CO`, the melting point was in the range of 125 to 126 °C.

For `Cc1c(C(=O)O)oc2c(C(=O)c3ccc(Cl)cc3)cc(C(C)(C)C)c(O)c12`, the melting point is 214 to 216 °C.

Compound `Cc1ccc2c(C(C)C(=O)O)cc(=O)[nH]c2c1` (configuration not stated) displayed a melting point of 209 to 210 °C.

Consider `O=c1[nH]c2cc(Cl)ccc2c(O)c1-c1ccccc1Br`, for which the melting point fell in the range of 357 to 358 °C.

`CCOC(=O)c1c(OCC)c2ccc(C)nc2n(CC)c1=O` had a melting point of 77 to 79 °C.

Compound `O=C(Cc1cccc(O)c1)NNC(=O)c1c(O)cc(O)cc1Cl` returned a melting point of 217 °C.

`CCCCC1c2sccc2CCN1CCCOc1ccc([N+](=O)[O-])cc1` (configuration not stated) registered a melting point of 72 to 75 °C.

`O=C1C[C@@H](NC(=O)OCc2ccccc2)C(=O)N1`: the melting point lay in the range of 117 to 118 °C.

`O=c1c2ccc(F)cc2nc(CSc2ncnc3[nH]cnc23)n1-c1ccccc1Cl` came in with a melting point of 151 to 154 °C.

Consider `CC(CCCc1ccc(F)cc1)c1cc(O)c2c(c1)OC(C)(C)C1=C2CN(CC(=O)NC(N)=O)CC1` (configuration not stated), for which the melting point was in the range of 133 to 134 °C.
